From patent US8394825B2, “Compound” (Sterix Limited, priority 2007, dated 2013)

How the values were obtained:
DU145 cells = assay: Antiproliferative assay in DU145 cells, WST-1 cell proliferation assay, 96 hours (GI50); format: cell-based; conditions: Homo sapiens, DU-145, 96 hours post-treatment, triplicate
Summary of the method: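 DU145 cells seeded at 5000 cells/well, treated with […] compound or vehicle for 96 h. Viability read by WST-1, expressed as percent of mean control, GI50 derived; triplicate experiments.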

| Structure (SMILES) | GI50 (DU145 cells) [µM] | melting point [°C] |
| --- | --- | --- |
| COc1ccc(C(=O)N2CCc3cc(OCc4ccccc4)c(OC)cc3C2=O)cc1 [compound 128, 6-Benzyloxy-7-methoxy-2-(4-methoxybenzoyl)-3,4-dihydro-2H-isoquinolin-1-one] | > 100 | 151 to 152 |
| COc1cc2c(cc1OCc1ccccc1)CCN(C(=O)c1ccccc1OC)C2=O [compound 130, 6-Benzyloxy-7-methoxy-2-(2-methoxybenzoyl)-3,4-dihydro-2H-isoquinoline-1-one] | > 100 | 163 to 164 |
| COc1cc2c(cc1OCc1ccccc1)CCN(C(=O)c1cc(OC)c(OC)c(OC)c1)C2=O [compound 134, 6-Benzyloxy-7-methoxy-2-(3,4,5-trimethoxybenzoyl)-3,4-dihydro-2H-isoquinolin-1-one] | > 100 | 195 to 196 |
| COc1cc2c(cc1O)CCN(C(=O)c1ccccc1OC)C2=O [compound 138, 6-Hydroxy-7-methoxy-2-(2-methoxybenzoyl)-3,4-dihydro-2H-isoquinoline-1-one] | < 10 | 199 to 200 |
| COc1cccc(C(=O)N2CCc3cc(O)c(OC)cc3C2=O)c1 [compound 139, 6-Hydroxy-7-methoxy-2-(3-methoxybenzoyl)-3,4-dihydro-2H-isoquinoline-1-one] | < 10 | 198 to 199 |
| COc1ccc(C(=O)N2CCc3cc(O)c(OC)cc3C2=O)cc1 [compound 140, 6-Hydroxy-7-methoxy-2-(4-methoxybenzoyl)-3,4-dihydro-2H-isoquinolin-1-one] | > 100 | 224 to 225 |
| COc1cc2c(cc1O)CCN(C(=O)c1ccc(OC)c(OC)c1)C2=O [compound 142, 2-(3,4-Dimethoxybenzoyl)-6-hydroxy-7-methoxy-3,4-dihydro-2H-isoquinoline-1-one] | < 10 | 199 to 200 |
| COc1cc2c(cc1O)CCN(C(=O)c1cc(OC)c(OC)c(OC)c1)C2=O [compound 143, 6-Hydroxy-7-methoxy-2-(3,4,5-trimethoxybenzoyl)-3,4-dihydro-2H-isoquinolin-1-one] | < 10 | 175 to 176 |
| COc1cc2c(cc1O)CCN(C(=O)c1cccc(C#N)c1)C2=O [compound 144, 2-(3-Cyanobenzoyl)-6-hydroxy-7-methoxy-3,4-dihydro-2H-isoquinoline-1-one] | 50 to 100 | 197 to 198 |
| COc1ccccc1COc1cc2c(cc1OC)C(=O)N(Cc1ccccc1OC)CC2 [compound 156, 7-Methoxy-2-(2-methoxybenzyl)-6-(2-methoxybenzyloxy)-3,4-dihydro-2H-isoquinolin-1-one] | > 100 | 133 to 134 |
| COc1cc(CN2CCc3cc(OCc4ccccc4)c(OC)cc3C2=O)cc(OC)c1 [compound 157, 6-(Benzyloxy)-2-(3,5-dimethoxybenzyl)-7-methoxy-3,4-dihydro-2H-isoquinolin-1-one] | > 100 | 82 to 83 |
| COc1cc2c(cc1OCc1ccccc1)CCN(Cc1cc(OC)c(OC)c(OC)c1)C2=O [compound 158, 6-(benzyloxy)-7-methoxy-2-(3,4,5-trimethoxybenzyl)-3,4-dihydro-2H-isoquinolin-1-one] | > 100 | 136 to 137 |
| COc1ccc(CN2CCc3cc(O)c(OC)cc3C2=O)cc1 [compound 159, 6-Hydroxy-7-methoxy-2-(4-methoxybenzyl)-3,4-dihydroisoquinolin-1(2H)-one] | > 100 | 171 to 172 |
| COc1cc(CN2CCc3cc(O)c(OC)cc3C2=O)cc(OC)c1 [compound 162, 2-(3,5-dimethoxybenzyl)-6-hydroxy-7-methoxy-3,4-dihydro-2H-isoquinolin-1-one] | > 100 | 166 to 167 |
| COc1cc2c(cc1O)CCN(Cc1cc(OC)c(OC)c(OC)c1)C2=O [compound 163, 6-hydroxy-7-methoxy-2-(3,4,5-trimethoxybenzyl)-3,4-dihydro-2H-isoquinolin-1-one] | > 100 | 168 to 169 |
| COc1cccc(S(=O)(=O)N2CCc3cc(OCc4ccccc4)c(OC)cc3C2)c1 [compound 169, 6-Benzyloxy-7-methoxy-2-(3-methoxy-benzenesulfonyl)-1,2,3,4-tetrahydroisoquinoline] | > 100 | 124 to 125 |
| COc1cc2c(cc1OCc1ccccc1)CCN(S(=O)(=O)c1cccc(C)c1)C2 [compound 171, 6-Benzyloxy-7-methoxy-2-(toluene-3-sulfonyl)-1,2,3,4-tetrahydroisoquinoline] | > 100 | 144 to 147 |
| COc1cccc(S(=O)(=O)N2CCc3cc(O)c(OC)cc3C2)c1 [compound 178, 6-Hydroxy-7-methoxy-2-(3-methoxy-benzenesulfonyl)-1,2,3,4-tetrahydroisoquinoline] | > 100 | 168 to 170 |
| COc1cc2c(cc1O)CCN(S(=O)(=O)c1cccc(C(F)(F)F)c1)C2 [compound 181, 6-Hydroxy-7-methoxy-2-(3-trifluoromethyl-benzenesulfonyl)-1,2,3,4-tetrahydroisoquinoline] | > 100 | 178 to 180 |
| COc1cc2c(cc1O)CCN(S(=O)(=O)c1ccccc1OC)C2 [compound 184, 6-Hydroxy-7-methoxy-2-(2-methoxy-benzenesulfonyl)-1,2,3,4-tetrahydroisoquinoline] | > 100 | 140 to 142 |
| COc1ccc(S(=O)(=O)N2CCc3cc(O)c(OC)cc3C2)cc1 [compound 185, 6-Hydroxy-7-methoxy-2-(4-methoxy-benzenesulfonyl)-1,2,3,4-tetrahydroisoquinoline] | > 100 | 147 to 149 |
| COc1cc2c(cc1O)CCN(S(=O)(=O)c1cccc(C#N)c1)C2 [compound 186, 2-(3-Cyano-benzenesulfonyl)-6-hydroxy-7-methoxy-1,2,3,4-tetrahydroisoquinoline] | > 100 | 204 to 206 |

Now from value to compound:

| GI50 (DU145 cells) [µM] | melting point [°C] | Structure (SMILES) |
| --- | --- | --- |
| > 100 | 180 to 181 | COc1cc(OC)cc(C(=O)N2CCc3cc(OCc4ccccc4)c(OC)cc3C2=O)c1 [compound 129, 6-(Benzyloxy)-2-(3,5-dimethoxybenzoyl)-7-methoxy-3,4-dihydro-2H-isoquinolin-1-one] |
| > 100 | 200 to 201 | COc1ccc(C(=O)N2CCc3cc(OCc4ccccc4)c(OC)cc3C2=O)cc1OC [compound 133, 6-(Benzyloxy)-7-methoxy-2-(3,4-dimethoxybenzoyl)-3,4-dihydro-2H-isoquinoline-1-one] |
| > 100 | 195 to 196 | COc1cc2c(cc1OCc1ccccc1)CCN(C(=O)c1cccc(C#N)c1)C2=O [compound 135, 6-Benzyloxy-2-(3-cyanobenzoyl)-7-methoxy-3,4-dihydro-2H-isoquinoline-1-one] |
| < 10 | 198 to 199 | COc1cc(OC)cc(C(=O)N2CCc3cc(O)c(OC)cc3C2=O)c1 [compound 141, 2-(3,5-Dimethoxybenzoyl)-6-hydroxy-7-methoxy-3,4-dihydro-2H-isoquinolin-1-one] |
| > 100 | 198 to 199 | COc1cc2c(cc1O)CCN(C(=O)c1ccc(C#N)cc1)C2=O [compound 145, 2-(4-Cyanobenzoyl)-6-hydroxy-7-methoxy-3,4-dihydro-2H-isoquinoline-1-one] |
| > 100 | 85 to 86 | COc1cccc(COc2cc3c(cc2OC)C(=O)N(Cc2cccc(OC)c2)CC3)c1 [compound 155, 7-Methoxy-2-(3-methoxybenzyl)-6-(3-methoxybenzyloxy)-3,4-dihydro-2H-isoquinolin-1-one] |
| > 100 | 181 to 182 | COc1cccc(CN2CCc3cc(O)c(OC)cc3C2=O)c1 [compound 160, 6-Hydroxy-7-methoxy-2-(3-methoxy-benzyl)-3,4-dihydro-2H-isoquinolin-1-one] |
| > 100 | 164 to 165 | COc1cc2c(cc1O)CCN(Cc1ccccc1OC)C2=O [compound 161, 6-Hydroxy-7-methoxy-2-(2-methoxybenzyl)-3,4-dihydro-2H-isoquinolin-1-one] |
| > 100 | 118 to 120 | COc1cc2c(cc1OCc1ccccc1)CCN(S(=O)(=O)c1cccc(OC(F)(F)F)c1)C2 [compound 170, 6-Benzyloxy-7-methoxy-2-(3-trifluoromethoxy-benzenesulfonyl)-1,2,3,4-tetrahydroisoquinoline] |
| > 100 | 136 to 138.5 | COc1cc2c(cc1OCc1ccccc1)CCN(S(=O)(=O)c1cccc(C(F)(F)F)c1)C2 [compound 172, 6-Benzyloxy-7-methoxy-2-(3-trifluoromethyl-benzenesulfonyl)-1,2,3,4-tetrahydroisoquinoline] |
| > 100 | 202 to 203 | COc1cc2c(cc1O)CCN(S(=O)(=O)c1cccc(OC(F)(F)F)c1)C2 [compound 179, 6-Hydroxy-7-methoxy-2-(3-trifluoromethoxy-benzenesulfonyl)-1,2,3,4-tetrahydroisoquinoline] |
| > 100 | 176 to 179 | COc1cc2c(cc1O)CCN(S(=O)(=O)c1cccc(C)c1)C2 [compound 180, 6-Hydroxy-7-methoxy-2-(toluene-3-sulfonyl)-1,2,3,4-tetrahydroisoquinoline] |
| > 100 | 175 to 178 | COc1cc2c(cc1O)CCN(S(=O)(=O)c1cccc(Cl)c1)C2 [compound 182, 2-(3-Chloro-benzenesulfonyl)-6-hydroxy-7-methoxy-1,2,3,4-tetrahydroisoquinoline] |
| > 100 | 164 to 167 | COc1cc2c(cc1O)CCN(S(=O)(=O)c1ccccc1C#N)C2 [compound 183, 2-(2-Cyano-benzenesulfonyl)-6-hydroxy-7-methoxy-1,2,3,4-tetrahydroisoquinoline] |
